According to US20050112573A1, “Method of detecting toxic substance” (priority 2001, published 2005):

System: yeast genes (level of expressed mRNA)
Test: DNA chip analysis of expressed mRNA of yeast genes after 2 h culture with a toxic chemical substance
Format: cell-based, Saccharomyces cerevisiae S288C
Conditions: for The level of expressed mRNA in the presence of chemical substance/ (ratio to absence of chemical substance): stress protein genes, DNA chip; for The level of expressed mRNA in the presence of chemical substance/ in its absence, gene YPR184W: yeast gene YPR184W
Method: Yeast (Saccharomyces cerevtisiae S288C (α SUC2mal mel gap2 CUP1)) were cultured at 25° C. on YPD medium (yeast extract 1%, polypepton 2%, glucose 2%). One of toxic chemical substances was added to the cell at logarithmic growth phase, and the cell was further cultured for two hours. Cell was cultured without any chemical substance in the same condition, and was used as control. Concentrations of the chemical substances were defined to inhibit the growth of the yeast but not lead to death.
After the completion of cultivation, the culture was centrifuged to collect the cells. To the cells, sodium acetate buffer (50 mM sodium acetate, 10 mM EDTA, 1% SDS) was added, and the mixture was shaken at 65° C. for five minutes, followed by returning to room temperature, and obtaining the supernatant, which procedure was repeated two times. To the supernatant, ½ amount of a solution of phenol/chloroform was added, and the mixture was centrifuged to give a supernatant, which was added with an equal amount of chloroform, and the mixture was centrifuged to give a supernatant. To the supernatant, an equal amount of isopropanol containing 0.3 M sodium acetate was added, and the mixture was allowed to stand at room temperature for 30 minutes, after which the mixture was centrifuged to give a sediment of the whole RNAs. Seventy % ethanol was added to the sediment, and the mixture was again centrifuged to give a sediment, which was then dried and dissolved in water. mRNA was isolated from the whole RNAs as followings. In view of the fact that a poly A chain is attached to the 3′ terminus of mRNA, a polynucleotide having a poly T structure which was immobilized on the surface of latex beads was used to trap the mRNA, and then the mRNA was washed and eluted with spine column (Oligotex-dT30<Super>mRNA Purification Kit, Takara). Reverse transcription of the mRNA was conducted with a reverse transcriptase (Super Script II Reverse Transcriptase; catalogue No. 18064-014, GibcoBRL) using fluorescence-labeled nucleotides to give cDNAs that were introduced with Cy3-dUTP or Cy5-dUTP during the reverse transcription.
The labeled cDNAs were dissolved in TE buffer (10 mM Tris-HCl/1 mM EDTA, pH8.0), and the solution was dropped on the DNA chip containing the whole genes of yeast (DNA Chip Research Inc. Japan) so that the cDNAs were hybridized on the DNA chip at 65° C. for over 12 hours. The fluoresces intensity of the DNA chip was read with a scanner, and the ratio relative to the fluorescence intensity resulting from the absence of chemical substance was estimated as the following, which is shown in Tables 1 to 9: [formula]
In the Tables, “Intensity” indicated in the rightmost column is a value of the level of expressed mRNA of each gene in control cells as divided by the average level of the expressions of the whole genes.

SMILES: S=C([S-])NCCNC(=S)[S-].[Zn+2] [(11), zinc N,N′-ethylenebis(dithiocarbamate)]
- The level of expressed mRNA in the presence of chemical substance/ (in its absence), gene YMR293C (yeast gene YMR293C, ratio of DNA chip fluorescence intensity to that without chemical substance): 0.4
- The level of expressed mRNA in the presence of chemical substance/The level of expressed mRNA in the absence of chemical substance (yeast gene YMR314W): 1.8
- The level of expressed mRNA in the presence of chemical substance/The level of expressed mRNA in the absence of chemical substance (yeast gene YNL006W): 1.1
- The level of expressed mRNA in the presence of chemical substance/The level of expressed mRNA in the absence of chemical substance (yeast gene YNL007C): 1.3
- The level of expressed mRNA in the presence of chemical substance/ (in its absence), gene YNL025C (yeast gene YNL025C, ratio of DNA chip fluorescence intensity to that without chemical substance): 1.1
- The level of expressed mRNA in the presence of chemical substance/ (ratio to absence of chemical substance) (yeast gene YNL064C): 0.9
- The level of expressed mRNA in the presence of chemical substance/ (ratio to absence), gene YNL073W (yeast gene YNL073W, mitochondria-located protein genes, 2 h culture with chemical): 1.1
- The level of expressed mRNA in the presence of chemical substance/The level of expressed mRNA in the absence of chemical substance (yeast gene YNL093W): 1.6
- The level of expressed mRNA in the presence of chemical substance/ (in its absence), gene YNL192W (yeast gene YNL192W, ratio of DNA chip fluorescence intensity to that without chemical substance): 1.1
- The level of expressed mRNA in the presence of chemical substance/The level of expressed mRNA in the absence of chemical substance (yeast gene YNL333W): 2.0
- The level of expressed mRNA in the presence of chemical substance/The level of expressed mRNA in the absence of chemical substance (yeast gene YNR010W): 1.4
- The level of expressed mRNA in the presence of chemical substance/The level of expressed mRNA in the absence of chemical substance (yeast gene YNR069C): 2.5
- The level of expressed mRNA in the presence of chemical substance/ (in its absence), gene YNR072W (yeast gene YNR072W, ratio of DNA chip fluorescence intensity to that without chemical substance): 1.4
- The level of expressed mRNA in the presence of chemical substance/ (ratio to absence of chemical substance) (yeast gene YNR076W): 1.4
- The level of expressed mRNA in the presence of chemical substance/The level of expressed mRNA in the absence of chemical substance (yeast gene YOL013C): 1.4
- The level of expressed mRNA in the presence of chemical substance/ (ratio to absence), gene YOL096C (yeast gene YOL096C, mitochondria-located protein genes, 2 h culture with chemical): 1.2
- The level of expressed mRNA in the presence of chemical substance/ (in its absence), gene YOL096C (yeast gene YOL096C, ratio of DNA chip fluorescence intensity to that without chemical substance): 1.2
- The level of expressed mRNA in the presence of chemical substance/ (in its absence), gene YOL108C (yeast gene YOL108C, ratio of DNA chip fluorescence intensity to that without chemical substance): 1.1
- The level of expressed mRNA in the presence of chemical substance/ (in its absence), gene YOL116W (yeast gene YOL116W, ratio of DNA chip fluorescence intensity to that without chemical substance): 1.0
- The level of expressed mRNA in the presence of chemical substance/ (ratio to absence of chemical substance) (yeast gene YOL161C): 1.5
- The level of expressed mRNA in the presence of chemical substance/The level of expressed mRNA in the absence of chemical substance (yeast gene YOL164W): 1.0
- The level of expressed mRNA in the presence of chemical substance/ (ratio to absence of chemical substance) (yeast gene YOR008C): 1.0
- The level of expressed mRNA in the presence of chemical substance/ (ratio to absence of chemical substance) (yeast gene YOR009W): 1.4
- The level of expressed mRNA in the presence of chemical substance/ (ratio to absence of chemical substance) (yeast gene YOR010C): 1.2
- The level of expressed mRNA in the presence of chemical substance/The level of expressed mRNA in the absence of chemical substance (yeast gene YOR036W): 1.3
- The level of expressed mRNA in the presence of chemical substance/ (in its absence), gene YOR103C (yeast gene YOR103C, ratio of DNA chip fluorescence intensity to that without chemical substance): 1.0
- The level of expressed mRNA in the presence of chemical substance/The level of expressed mRNA in the absence of chemical substance (yeast gene YOR117W): 1.2
- The level of expressed mRNA in the presence of chemical substance/The level of expressed mRNA in the absence of chemical substance (yeast gene YOR124C): 1.2
- The level of expressed mRNA in the presence of chemical substance/The level of expressed mRNA in the absence of chemical substance (yeast gene YOR132W): 1.3
- The level of expressed mRNA in the presence of chemical substance/The level of expressed mRNA in the absence of chemical substance (yeast gene YOR157C): 1.6
- The level of expressed mRNA in the presence of chemical substance/ (in its absence), gene YOR180C (yeast gene YOR180C, ratio of DNA chip fluorescence intensity to that without chemical substance): 0.6
- The level of expressed mRNA in the presence of chemical substance/The level of expressed mRNA in the absence of chemical substance (yeast gene YOR181W): 1.0
- The level of expressed mRNA in the presence of chemical substance/The level of expressed mRNA in the absence of chemical substance (yeast gene YOR185C): 1.2
- The level of expressed mRNA in the presence of chemical substance/The level of expressed mRNA in the absence of chemical substance (yeast gene YOR198C): 1.4
- The level of expressed mRNA in the presence of chemical substance/ (in its absence), gene YOR251C (yeast gene YOR251C, ratio of DNA chip fluorescence intensity to that without chemical substance): 1.0
- The level of expressed mRNA in the presence of chemical substance/The level of expressed mRNA in the absence of chemical substance (yeast gene YOR259C): 1.0
- The level of expressed mRNA in the presence of chemical substance/The level of expressed mRNA in the absence of chemical substance (yeast gene YOR261C): 2.1
- The level of expressed mRNA in the presence of chemical substance/The level of expressed mRNA in the absence of chemical substance (yeast gene YOR288C): 1.4
- The level of expressed mRNA in the presence of chemical substance/ (ratio to absence), gene YOR316C (yeast gene YOR316C, mitochondria-located protein genes, 2 h culture with chemical): 2.4
- The level of expressed mRNA in the presence of chemical substance/ (in its absence), gene YOR348C (yeast gene YOR348C, ratio of DNA chip fluorescence intensity to that without chemical substance): 1.1
- The level of expressed mRNA in the presence of chemical substance/The level of expressed mRNA in the absence of chemical substance (yeast gene YOR355W): 1.2
- The level of expressed mRNA in the presence of chemical substance/ (in its absence), gene YOR363C (yeast gene YOR363C, ratio of DNA chip fluorescence intensity to that without chemical substance): 1.2
- The level of expressed mRNA in the presence of chemical substance/The level of expressed mRNA in the absence of chemical substance (yeast gene YOR383C): 1.4
- The level of expressed mRNA in the presence of chemical substance/ (ratio to absence), gene YPL040C (yeast gene YPL040C, mitochondria-located protein genes, 2 h culture with chemical): 0.9
- The level of expressed mRNA in the presence of chemical substance/ (ratio to absence of chemical substance) (yeast gene YPL059W): 1.6
- The level of expressed mRNA in the presence of chemical substance/The level of expressed mRNA in the absence of chemical substance (yeast gene YPL089C): 0.9
- The level of expressed mRNA in the presence of chemical substance/ (ratio to absence), gene YPL134C (yeast gene YPL134C, mitochondria-located protein genes, 2 h culture with chemical): 1.7
- The level of expressed mRNA in the presence of chemical substance/ (ratio to absence of chemical substance) (yeast gene YPL140C): 0.8
- The level of expressed mRNA in the presence of chemical substance/ (in its absence), gene YPL148C (yeast gene YPL148C, ratio of DNA chip fluorescence intensity to that without chemical substance): 3.5
- The level of expressed mRNA in the presence of chemical substance/The level of expressed mRNA in the absence of chemical substance (yeast gene YPL149W): 1.2
- The level of expressed mRNA in the presence of chemical substance/The level of expressed mRNA in the absence of chemical substance (yeast gene YPL154C): 1.8
- The level of expressed mRNA in the presence of chemical substance/ (ratio to absence of chemical substance) (yeast gene YPL194W): 0.9
- The level of expressed mRNA in the presence of chemical substance/ (ratio to absence of chemical substance) (yeast gene YPR005C): 0.4
- The level of expressed mRNA in the presence of chemical substance/The level of expressed mRNA in the absence of chemical substance (yeast gene YPR103W): 0.9
- The level of expressed mRNA in the presence of chemical substance/The level of expressed mRNA in the absence of chemical substance (yeast gene YPR108W): 1.8
- The level of expressed mRNA in the presence of chemical substance/ (in its absence), gene YPR165W (yeast gene YPR165W, ratio of DNA chip fluorescence intensity to that without chemical substance): 1.0
- The level of expressed mRNA in the presence of chemical substance/ in its absence, gene YPR184W (energy system protein genes, 2 h culture with the chemical, ratio to control without chemical): 3.6
- The level of expressed mRNA in the presence of chemical substance/ in its absence, gene YPR184W (ratio of DNA chip fluorescence intensity to that without chemical substance): 3.6
